# Measured values taken from US7993668B2, “Nutrient composition and composition for prevention/mitigation of digestive tract depression” (Ajinomoto Co., Inc., priority 2004, dated 2011).
# System: male rat
# Experiment: Onset of diarrhea due to intragastric administration of an elemental diet in fasted rats (stool state ranked 1-4)
# Format: in vivo
# Description: According to a conventional method, under pentobarbital anesthesia, a catheter for elemental diet administration was inserted by operation in the stomach of a male rat (body weight about 270 g), and a recovery period of one week was given. For breeding, a regular rat feed and tap water were given, and free intake was allowed. After confirmation of recovery, the rat was fasted three nights to induce lower gastrointestinal function. The fasting schedule on the day before operation, the operation day and the day after operation in the case of surgery patients was imitated.
# On the day of the test, the rats were divided into 3 groups, each rat was moved to a separate observation cage, and the onset of diarrhea due to the administration of an elemental diet shown below was observed. First, one pack (80 g) of elemental diet having the composition shown in Table 1 was dissolved in water (300 cc) and prepared to show 1 kcal/cc, which was used as elemental diet 1. Three groups of an elemental diet 1 administration group as a control, an elemental diet 2 administration group, to which 1.0 w/v % (0.88 w/v % as free glutamic acid) of sodium glutamate (MSG) was added, and an elemental diet 3 administration group, to which sodium chloride (0.35 w/v %) was added, were compared. Each test elemental diet was administered using an electric pump via the catheter inserted into the stomach. The administration was started from 10:30 AM and intermittently administered 4 times per hr at 7 mL/hr. Each test elemental diet administered to one rat was 28 mL in total. The state of stool was observed from the start of the administration until 10:30 AM the next morning and, based on the severity of the symptom, ranked in 4 levels of 1. normal stool or no stool, 2, soft stool (shape was maintained), 3, muddy stool (no shape) and 4, watery stool.
# A method according to Example 1 was employed. […] Each test elemental diet was administered using an electric pump via the catheter inserted into the stomach.
# A method according to Example 1 was employed. Three groups of an elemental diet 1 administration group having the composition shown in a separate table as a control, an elemental diet 6 administration group, to which 0.04 w/v % (0.036 w/v % as free guanylic acid) of sodium guanylate (GMP) was added, and an elemental diet 7 administration group, to which 0.20 w/v % (0.18 w/v % as free guanylic acid) was added, were compared. Each test elemental diet was administered using an electric pump via the catheter inserted into the stomach.
# [1] = Example 1, elemental diet 3 with 0.35 w/v % sodium chloride, out of 11 cases
# [2] = Example 3, elemental diet 6 with 0.04 w/v % sodium guanylate, out of 13 cases
# [3] = Example 3, elemental diet 7 with 0.20 w/v % sodium guanylate, out of 13 cases
compound,measurement,setting,value
"[Cl-].[Na+] [sodium chloride, reference compound]",rank 1 observed,[1],1 case
same,rank 3 observed,[1],6 cases
N[C@@H](CCC(=O)[O-])C(=O)[O-].[Na+].[Na+] [sodium glutamate],improvement of diarrhea (stool rank) vs non-addition group,"Example 1, 1.0 w/v % sodium glutamate, Kruskal-Wallis, p<0.05",significant improvement effect
same,rank 2 soft stool observed,po,1 case
same,rank 3 muddy stool observed,po,2 cases
Nc1nc2c(ncn2[C@@H]2O[C@H](COP(=O)([O-])[O-])[C@@H](O)[C@H]2O)c(=O)[nH]1.[Na+].[Na+] [sodium guanylate],rank 1 normal stool or no stool observed,"Example 3, elemental diet 6 with 0.04 w/v % sodium guanylate (0.036 w/v % as free guanylic acid), out of 13 cases",3 cases
same,rank 2 soft stool observed,[2],1 case
same,rank 4 watery stool observed,[2],9 cases
same,rank 1 normal stool or no stool observed,"Example 3, elemental diet 7 with 0.20 w/v % sodium guanylate (0.18 w/v % as free guanylic acid), out of 13 cases",3 cases
same,rank 2 soft stool observed,[3],1 case
same,rank 4 watery stool observed,[3],9 cases
same,diarrhea symptom-improving effect by the addition,"Example 3, sodium guanylate 0.04 and 0.20 w/v % addition groups vs non-addition group",diarrhea symptom-improving effect was considered to be observed
